Biological target: T1, human PKCθ full length enzyme (Homo sapiens, UniProt Q04759)
T1 construct: human PKCθ full length enzyme (Panvera Cat# P2996); purchased Panvera P2996
Assay: PKCθ IMAP assay
Type: biochemical
Settings: full length enzyme 1 nM; ATP 6 μM; peptide 100 nM; FP readout; average value
Protocol: The materials used include the following: human PKCθ full length enzyme (Panvera Cat# P2996); substrate peptide: 5FAM-RFARKGSLRQKNV-OH (Molecular Devices, RP7032); ATP (Sigma Cat # A2383); DTT (Pierce, 20291); 5× kinase reaction buffer (Molecular Devices, R7209); 5× binding buffer A (Molecular Devices, R7282), 5× binding buffer B (Molecular Devices, R7209); IMAP Beads (Molecular Devices, R7284); and 384-well plates (Corning Costar, 3710).
The reaction buffer was prepared by diluting the 5× stock reaction buffer and adding DTT to obtain a concentration of 3.0 mM. The binding buffer was prepared by diluting the 5× binding buffer A. A master mix solution was prepared using a 90% dilution of the reaction buffer containing 2× ATP (12 uM) and 2× peptide (200 nm). Compounds were diluted in DMSO to 20× of the maximum concentration for the IC50 measurement. 27 μl of the master mix solution for each IC50 curve was added to the first column in a 384-well plate and 3 μl of 20× compound in DMSO was added to each well. The final concentration of compound was 2× and 10% DMSO. DMSO was added to the rest of the master mix to increase the concentration to 10%. 10 μl of the master mix containing 10% DMSO was added to the rest of the wells on the plate except the 2nd column. 20 μl was transferred from the first column to the 2nd column.
The compounds were serially diluted in 2:1 ratio starting from the 2nd column. A 2× (2 nM) PKCθ solution was made in the reaction buffer. 10 μl of the PKCθ solution was added to every well to achieve these final concentrations: PKCθ—1 nM; ATP—6 μM; peptide—100 nM; DMSO—5%. Samples were incubated for 25 minutes at room temperature. The binding reagent was prepared by diluting the beads in 1× binding buffer to 800:1. 50 μl of the binding reagent was added to every well and incubated for 20 minutes. FP was measured using Envision2100 (PerkinElmer Life Sciences). Wells with no ATPs and wells with no enzymes were used as controls.

T1 sequence (Q04759 whole entry): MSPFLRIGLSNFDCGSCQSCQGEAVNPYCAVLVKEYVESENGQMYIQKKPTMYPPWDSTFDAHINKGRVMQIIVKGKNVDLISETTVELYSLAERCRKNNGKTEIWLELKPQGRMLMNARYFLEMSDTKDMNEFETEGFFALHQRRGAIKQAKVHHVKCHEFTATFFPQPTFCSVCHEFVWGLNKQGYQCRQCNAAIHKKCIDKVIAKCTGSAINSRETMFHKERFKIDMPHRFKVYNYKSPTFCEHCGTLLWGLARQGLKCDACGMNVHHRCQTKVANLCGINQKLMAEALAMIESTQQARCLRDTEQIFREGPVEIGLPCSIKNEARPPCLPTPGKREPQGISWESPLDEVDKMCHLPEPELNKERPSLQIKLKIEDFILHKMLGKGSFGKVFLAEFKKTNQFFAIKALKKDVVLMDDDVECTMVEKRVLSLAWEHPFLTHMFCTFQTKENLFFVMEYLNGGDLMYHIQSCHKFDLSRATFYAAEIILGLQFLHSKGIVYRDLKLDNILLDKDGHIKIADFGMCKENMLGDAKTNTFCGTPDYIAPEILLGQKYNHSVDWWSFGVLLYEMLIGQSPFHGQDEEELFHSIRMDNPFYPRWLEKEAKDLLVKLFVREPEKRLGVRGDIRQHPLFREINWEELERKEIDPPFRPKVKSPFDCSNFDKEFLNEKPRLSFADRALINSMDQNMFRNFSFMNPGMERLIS

Compound | IC50 [µM]
CN(C)c1ccc(-c2cncc(C#N)c2Nc2ccc(F)c(F)c2)cc1 [Compound 134, 4-[(3,4-difluorophenyl)amino]-5-[4-(dimethylamino)phenyl]nicotinonitrile] | 2.03
COc1cccc(-c2cncc(C#N)c2Nc2cccc([N+](=O)[O-])c2)c1 [Compound 153, 5-(3-methoxyphenyl)-4-[(3-nitrophenyl)amino]nicotinonitrile] | 9.63
CN(C)c1ccc(-c2cncc(C#N)c2Nc2ccc(C#N)cc2)cc1 [Compound 133, 4-[(4-cyanophenyl)amino]-5-[4-(dimethylamino)phenyl]nicotinonitrile] | 30
COc1ccc(-c2cncc(C#N)c2Nc2cccc(NC(C)=O)c2)cc1OC [Compound 127, N-(3-{[3-cyano-5-(3,4-dimethoxyphenyl)pyridin-4-yl]amino}phenyl) acetamide] | 0.57
COc1ccc(-c2cncc(C#N)c2Nc2cccc(NS(C)(=O)=O)c2)cc1OC [Compound 129, N-(3-{[3-cyano-5-(3,4-dimethoxyphenyl)pyridin-4-yl]amino}phenyl)methanesulfonamide] | 36
COc1cccc(Nc2c(C#N)cncc2-c2ccc(N(C)C)cc2)c1 [Compound 130, 5-[4-(dimethylamino)phenyl]-4-[(3-methoxyphenyl)amino]nicotinonitrile] | 0.8
COc1ccc(-c2cncc(C#N)c2Nc2cccc(OC[C@@H](N)Cc3ccccc3)c2)cc1OC [Compound 161, 4-[(3-{[(2S)-2-amino-3-phenylpropyl]-oxy}-phenyl)amino]-5-(3,4-dimethoxyphenyl)nicotinonitrile] | 0.82
COc1ccc(-c2cncc(C#N)c2Nc2cccc(O)c2)cc1OC [Compound 159, 5-(3,4-dimethoxyphenyl)-4-[(3-hydroxyphenyl)amino]nicotinonitrile] | 0.31
COc1ccc(-c2cncc(C#N)c2Nc2cccc(N(C)C(C)=O)c2)cc1OC [Compound 128, N-(3-{[3-cyano-5-(3,4-dimethoxyphenyl)pyridin-4-yl]amino}phenyl)-N-methylacetamide] | 35
Cc1ccc(Cl)c(Nc2c(C#N)cncc2-c2cc3cc(CN4CCCCC4)ccc3o2)c1 [Compound 168, 4-[(2-chloro-5-methylphenyl)amino]-5-[5-(piperidin-1-ylmethyl)-1-benzofuran-2-yl]nicotinonitrile] | 2.04
COc1ccc(-c2cncc(C#N)c2Nc2cccc(OCCO)c2)cc1OC [Compound 160, 5-(3,4-dimethoxyphenyl)-4-{[3-(2-hydroxyethoxy)phenyl]amino}nicotinonitrile] | 5.21
N#Cc1cncc(-c2cc3cc(CN4CCCCC4)ccc3o2)c1Nc1cc(O)ccc1Oc1ccccc1 [Compound 169, 4-[(5-hydroxy-2-phenoxyphenyl)amino]-5-[5-(piperidin-1-ylmethyl)-1-benzofuran-2-yl]nicotinonitrile] | 0.65
N#Cc1cncc(-c2cc3cc(CN4CCCCC4)ccc3o2)c1Nc1cc(O)c(Cl)cc1Cl [Compound 171, 4-[(2,4-dichloro-5-hydroxyphenyl)amino]-5-[5-(piperidin-1-ylmethyl)-1-benzofuran-2-yl]nicotinonitrile] | 0.27
COc1ccc(Nc2c(C#N)cncc2-c2cc3cc(CN4CCCCC4)ccc3o2)c(C)c1 [Compound 172, 4-[(4-methoxy-2-methylphenyl)amino]-5-[5-(piperidin-1-ylmethyl)-1-benzofuran-2-yl]nicotinonitrile] | 0.16
N#Cc1cncc(-c2cc3cc(CN4CCCCC4)ccc3s2)c1Nc1cc(OCCO)ccc1Cl [Compound 164] | 0.06
CN(C)c1ccc(-c2cncc(C#N)c2Nc2cccc([N+](=O)[O-])c2)cc1 [Compound 152, 5-[4-(dimethylamino)phenyl]-4-[(3-nitrophenyl)amino]nicotinonitrile] | 7.84
CN(C)c1ccc(-c2cncc(C#N)c2Nc2cccc(F)c2)cc1 [Compound 131, 5-[4-(dimethylamino)phenyl]-4-[(3-fluorophenyl)amino]nicotinonitrile] | 0.71
COc1cccc(-c2cncc(C#N)c2Nc2cccc(F)c2)c1 [Compound 155, 4-[(3-fluorophenyl)amino]-5-(3-methoxyphenyl)nicotinonitrile] | 1.57

Now from value to molecule:

IC50 [µM] | Compound
2.4 | COc1cccc(-c2cncc(C#N)c2Nc2ccc(F)c(F)c2)c1 [Compound 158, 4-[(3,4-difluorophenyl)amino]-5-(3-methoxyphenyl)nicotinonitrile]
0.03 | N#Cc1cncc(-c2cc3cc(C=O)ccc3s2)c1Nc1cc(O)ccc1Cl [Compound 162, 4-[(2-chloro-5-hydroxyphenyl)amino]-5-(5-formyl-1-benzothein-2-yl)nicotinonitrile]
1.06 | Cc1cc(Nc2c(C#N)cncc2-c2cc3cc(CN4CCCCC4)ccc3s2)ccc1N [Compound 166, 4-[(4-amino-3-methylphenyl)amino]-5-[5-(piperidin-1-ylmethyl)-1-benzothien-2-yl]nicotinonitrile]
11.9 | COc1ccc(-c2cncc(C#N)c2NCc2cccc(CN)c2)cc1OC [Compound 170, 4-{[3-(aminomethyl)benzyl]amino}-5-(3,4-dimethoxyphenyl)nicotinonitrile]
1.73 | COc1cccc(Nc2c(C#N)cncc2-c2cccc(OC)c2)c1 [Compound 154, 5-(3-methoxyphenyl)-4-[(3-methoxyphenyl)amino]nicotinonitrile]
0.65 | Cc1c(N)ccc(Nc2c(C#N)cncc2-c2cc3cc(CN4CCCCC4)ccc3s2)c1C [Compound 165, 4-[(4-amino-2,3-dimethylphenyl)amino]-5-[5-(piperidin-1-ylmethyl)-1-benzothien-2-yl]nicotinonitrile]
> 95 | COc1cccc(-c2cncc(C#N)c2Nc2ccc(C#N)cc2)c1 [Compound 157, 4-[(4-cyanophenyl)amino]-5-(3-methoxyphenyl)nicotinonitrile]
46.4 | COc1cccc(-c2cncc(C#N)c2Nc2ccc(C(=O)O)cc2)c1 [Compound 156, 4-{[3-cyano-5-(3-methoxyphenyl)pyridin-4-yl]amino}benzoic acid]
0.03 | N#Cc1cncc(-c2cc3cc(CN4CCCCC4)ccc3s2)c1Nc1cc(O)ccc1Cl [Compound 163, 4-[(2-chloro-5-hydroxyphenyl)amino]-5-[5-(piperidin-1-ylmethyl)-1-benzothien-2-yl]nicotinonitrile]
0.73 | COc1ccc(Cl)c(Nc2c(C#N)cncc2-c2cc3cc(CN4CCCCC4)ccc3o2)c1 [Compound 167, 4-[(2-chloro-5-methoxyphenyl)amino]-5-[5-(piperidin-1-ylmethyl)-1-benzofuran-2-yl]nicotinonitrile]
